These are literature values, as cited in US6958144B2, “Methods of whitening teeth” (Britesmile Development, Inc., priority 1995, dated 2005).

The conditions of the data set: 10% carbamide peroxide solution, background statement.

For the molecule `NC(N)=O.OO` [carbamide peroxide], the “equilibrium pH” value is “approximately 3.45”.
